Tests used:
Details in all cases: Compound concentration 1.0 uM
[1] = molecular target: Insulin receptor (Homo sapiens) (UniProt P06213)
[2] = molecular target: Mitogen-activated protein kinase 1 (Homo sapiens) (UniProt P28482)
[3] = molecular target: Serine/threonine-protein kinase mTOR (Homo sapiens) (UniProt P42345)
[4] = molecular target: Dual specificity protein kinase CLK2 (Homo sapiens) (UniProt P49760)

Measured: % residual kinase activity

Dual specificity protein kinase CLK2 (Homo sapiens), sequence (P49760 whole entry, looked up): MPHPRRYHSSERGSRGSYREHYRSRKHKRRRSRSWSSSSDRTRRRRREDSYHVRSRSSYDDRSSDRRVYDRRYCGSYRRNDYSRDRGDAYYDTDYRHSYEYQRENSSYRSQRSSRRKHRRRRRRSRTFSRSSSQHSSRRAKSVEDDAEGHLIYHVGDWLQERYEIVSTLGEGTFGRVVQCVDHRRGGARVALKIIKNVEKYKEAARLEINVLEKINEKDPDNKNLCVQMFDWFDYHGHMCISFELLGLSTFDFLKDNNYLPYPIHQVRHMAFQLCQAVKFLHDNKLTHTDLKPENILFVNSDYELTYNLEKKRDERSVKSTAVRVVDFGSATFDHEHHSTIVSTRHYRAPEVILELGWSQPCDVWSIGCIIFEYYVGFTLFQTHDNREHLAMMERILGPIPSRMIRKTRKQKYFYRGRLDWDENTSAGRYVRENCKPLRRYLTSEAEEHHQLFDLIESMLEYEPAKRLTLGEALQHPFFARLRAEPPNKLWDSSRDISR
Insulin receptor (Homo sapiens), sequence (P06213 28-758 limits assumed): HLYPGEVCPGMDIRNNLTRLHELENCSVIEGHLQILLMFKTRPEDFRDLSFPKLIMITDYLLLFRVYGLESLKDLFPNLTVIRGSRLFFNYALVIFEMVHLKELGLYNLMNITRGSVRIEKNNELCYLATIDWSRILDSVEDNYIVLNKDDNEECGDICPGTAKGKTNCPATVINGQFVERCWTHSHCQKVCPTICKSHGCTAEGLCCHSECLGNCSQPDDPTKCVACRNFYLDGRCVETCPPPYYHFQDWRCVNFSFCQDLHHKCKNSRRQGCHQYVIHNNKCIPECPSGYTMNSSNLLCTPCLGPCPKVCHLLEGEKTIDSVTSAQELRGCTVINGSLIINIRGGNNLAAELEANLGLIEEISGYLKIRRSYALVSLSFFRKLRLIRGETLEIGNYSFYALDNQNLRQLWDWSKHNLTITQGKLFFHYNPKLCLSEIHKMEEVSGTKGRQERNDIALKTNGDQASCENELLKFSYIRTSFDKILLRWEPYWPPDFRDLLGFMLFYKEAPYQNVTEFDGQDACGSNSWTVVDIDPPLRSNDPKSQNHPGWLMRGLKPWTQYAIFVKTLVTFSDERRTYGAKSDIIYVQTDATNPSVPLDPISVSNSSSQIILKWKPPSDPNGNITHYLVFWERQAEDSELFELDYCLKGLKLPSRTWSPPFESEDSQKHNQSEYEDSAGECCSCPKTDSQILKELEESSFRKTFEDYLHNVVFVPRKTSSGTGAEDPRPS
Insulin receptor (Homo sapiens), sequence (P06213 763-1382 limits assumed): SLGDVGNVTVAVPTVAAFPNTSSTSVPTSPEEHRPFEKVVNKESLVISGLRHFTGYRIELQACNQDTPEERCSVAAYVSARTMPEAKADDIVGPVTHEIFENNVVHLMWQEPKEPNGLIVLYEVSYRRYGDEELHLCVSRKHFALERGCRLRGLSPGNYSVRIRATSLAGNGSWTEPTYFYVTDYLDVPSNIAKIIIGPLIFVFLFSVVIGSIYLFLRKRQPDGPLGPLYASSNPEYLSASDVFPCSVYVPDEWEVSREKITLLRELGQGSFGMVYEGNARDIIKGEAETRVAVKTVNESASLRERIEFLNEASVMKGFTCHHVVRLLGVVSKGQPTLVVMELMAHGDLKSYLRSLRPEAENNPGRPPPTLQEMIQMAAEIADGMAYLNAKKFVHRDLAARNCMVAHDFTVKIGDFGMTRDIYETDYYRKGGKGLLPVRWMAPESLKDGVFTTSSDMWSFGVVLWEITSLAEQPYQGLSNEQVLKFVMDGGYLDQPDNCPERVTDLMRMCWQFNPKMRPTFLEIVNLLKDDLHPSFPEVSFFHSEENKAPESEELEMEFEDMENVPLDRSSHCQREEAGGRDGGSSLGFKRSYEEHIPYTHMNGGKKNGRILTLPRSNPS
Mitogen-activated protein kinase 1 (Homo sapiens), sequence (P28482 whole entry): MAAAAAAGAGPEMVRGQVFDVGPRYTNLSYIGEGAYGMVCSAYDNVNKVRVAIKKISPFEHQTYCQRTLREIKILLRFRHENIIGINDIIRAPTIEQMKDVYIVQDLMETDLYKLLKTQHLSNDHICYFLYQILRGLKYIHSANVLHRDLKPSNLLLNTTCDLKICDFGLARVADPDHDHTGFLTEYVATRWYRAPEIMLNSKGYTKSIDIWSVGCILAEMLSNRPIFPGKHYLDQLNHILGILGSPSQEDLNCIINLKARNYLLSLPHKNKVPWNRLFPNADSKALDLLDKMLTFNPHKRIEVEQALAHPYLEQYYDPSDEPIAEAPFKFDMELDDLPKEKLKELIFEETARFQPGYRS

CN1CCN(c2cnc3c(C4CCN(C(=O)c5ccc(OC(F)(F)F)cc5N)CC4)ncnc3c2)CC1 [BAY-885]
inactive: [1] 99% | [2] 107% | [3] 104% | [4] 109%

— ChEMBL document CHEMBL4507268 (2021)
